# Reference: patent US8629168B2, “Benzoxazoles and oxazolopyridines being useful as janus kinases inhibitors” (priority 2006, dated 2014)
# Target: T1, GST-JAK2 (Homo sapiens, UniProt O60674)
# T1 construct: the amino acid domain ASP751-VAL1129 of the JAK2 protein
# Assay: JAK2 kinase assay of the general description (alternative method, flash plate)
# Assay type: biochemical
# Conditions: 1.0 μM ATP, read-out: IC50 with test in general description (named “alternative method to that given in the examples”) (“flash plate”)
# Procedure: Baculovirus including the amino acid domain ASP751-VAL1129 of the JAK2 protein is obtainable by ProQinase, Freiburg, Germany. The virus is scaled up as following: Virus containing media is collected from the transfected cell culture and used for infection to increase its titer. Virus containing media obtained after two rounds of infection is used for large-scale protein expression. For large-scale protein expression 100 cm^2 round tissue culture plates are seeded with 5×10^7 cells/plate and infected with 1 mL of virus-containing media (approx. 5 MOIs). After 3 days the cells are scraped off the plate and centrifuged at 500 rpm for 5 min. Cell pellets from 10-20, 100 cm^2 plates, are re-suspended in 50 mL of ice-cold lysis buffer (25 mMTris-HCl, pH7.5, 2 mMEDTA, 1% NP-40, 1 mM DTT, 1 mMP MSF). The cells are stirred on ice for 15 min and then centrifuged at 5000 rpms for 20 min. The protein is purified by loading the centrifuged cell lysate onto a 2 mL glutathione-sepharose column and washed three times with 10 mL of 25 mM Tris-HCl, pH 7.5, 2 mM EDTA, 1 mM DTT, 200 mM NaCl. The GST-tagged proteins are then eluted by 10 applications (1 mL each) of 25 mM Tris-HCl, pH 7.5, 10 mM reduced-glutathione, 100 mM NaCl, 1 mM DTT, 10% Glycerol and stored at −70° C.
# Cancer Cell; 5: 231-239]. The test compound is dissolved in DMSO (10 mM) and stored at −20° C. Serial dilutions are freshly made in DMSO and are […] concentrated than test solutions (“pre-dilution plates”). They are further diluted with pure water to yield “master plates” containing 3 times concentrated test solutions in 3% DMSO. The final volume of the assay is 30 μL containing 10 μL of test solution (1% DMSO), 10 μL assay mix including the assay components described by Garcia-Echeverria (2004) and in the following section as well as 10 μL enzyme. The pipetting steps can be programmed to be performed either on the MultiPROBE Iix, MultiPROBE IILx or HamiltonSTAR robots in the 96 well format.
# The protein kinase assays are carried as described in details by Garcia-Echeverria (see above). The assay for JAK2 is carried out in 96-well plates at ambient temperature for 10 min (filter-biding method) or 30 min (flash plates) in a finial volume of 30 μL including the following components: 300 ng of GST-JAK2, 20 mM Tris-HCl, pH 7.5, 1.0 mM MnCl2, 10 mM MgCl2, 1 mM DTT, 3 μg/mL poly(Glu, Tyr) 4:1, 1% DMSO and 1.0 μM ATP (γ-[^33P]-ATP 0.1 μCi); The assays are terminated by the addition of 20 μl of 125 mM EDTA. The capturing of the phosphorylated peptides by the filter-binding method is performed as following: 40 μL of the reaction mixture are transferred onto Immobilon-PVDF membranes previously soaked for 5 min with methanol, rinsed with water, then soaked for 5 min with 0.5% H3PO4 and mounted on vacuum manifold with disconnected vacuum source. After spotting all samples, vacuum is connected and each well rinsed with 200 μl 0.5% H3PO4. Free membranes are removed and washed 4× on a shaker with 1.0% H3PO4, once with ethanol. Membranes are counted after drying at ambient temperature, mounting in Packard TopCount 96-well frame, and addition of 10 μl/well of Microscint. The plates are eventually sealed and counted in a microplate scintillation counter (TopCount NXT, TopCount NXT HTS, PerkinElmer, Brussels, Belgium).
# The assays for the flash plate method is carried out in a total volume of 30 μL at RT in conventional 96-well flash plates. The reaction is stopped after 30 min by the addition of 20 μL of 125 mM EDTA The assay plates are then washed three times with PBS and dried at room temperature. The plates are sealed and counted in a microplate scintillation counter (TopCount NXT, TopCount NXT HTS). IC50 values are calculated by linear regression analysis of the percentage inhibition of the compound either in duplicate, at four concentrations (usually 0.01, 0.1, 1 and 10 μM) or as 8 single point IC50 starting at 10 μM following by 1:3 dilutions.
# T1 sequence (O60674 751-1129): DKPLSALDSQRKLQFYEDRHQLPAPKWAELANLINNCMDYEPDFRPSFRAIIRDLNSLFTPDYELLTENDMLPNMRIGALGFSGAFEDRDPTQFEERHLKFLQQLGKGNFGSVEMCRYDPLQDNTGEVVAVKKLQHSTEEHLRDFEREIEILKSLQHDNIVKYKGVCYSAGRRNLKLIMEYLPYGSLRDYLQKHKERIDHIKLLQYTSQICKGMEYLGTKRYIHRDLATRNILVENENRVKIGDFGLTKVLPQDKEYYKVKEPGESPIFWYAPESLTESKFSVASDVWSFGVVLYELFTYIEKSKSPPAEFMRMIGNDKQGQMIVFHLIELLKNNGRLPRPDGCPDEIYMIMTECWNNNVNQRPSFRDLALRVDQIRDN
row,Compound,IC50 [nM]
1,"COc1cc(Nc2nc3cccc(-c4ccccc4N)c3o2)cc(OC)c1OC [Example 14, [7-(2-Amino-phenyl)-benzooxazol-2-yl]-(3,4,5-trimethoxy-phenyl)-amine]",610
2,"CNC(=O)c1cc(-c2cccc3nc(Nc4cc(OC)c(OC)c(OC)c4)oc23)cs1 [Example 34, 4-[2-(3,4,5-Trimethoxy-phenylamino)-benzooxazol-7-yl]-thiophene-2-carboxylic acid methylamide]",540
3,"Nc1cccc(-c2cccc3nc(Nc4ccc(N5CCOCC5)cc4)oc23)c1 [Example 43, [7-(3-Amino-phenyl)-benzooxazol-2-yl]-(4-morpholin-4-yl-phenyl)-amine]",1900
4,"COc1cc(Nc2nc3cccc(-c4ccccc4C)c3o2)cc(OC)c1OC [Example 44, (7-o-Tolyl-benzooxazol-2-yl)-(3,4,5-trimethoxy-phenyl)-amine]",930
5,"COc1cc(Nc2nc3cccc(-c4cccc(C#N)c4)c3o2)cc(OC)c1OC [Example 45, 3-[2-(3,4,5-Trimethoxy-phenylamino)-benzooxazol-7-yl]-benzonitrile]",950
6,"COc1cc(Nc2nc3cccc(-c4cccc(C(N)=O)c4)c3o2)cc(OC)c1OC [Example 47, 3-[2-(3,4,5-Trimethoxy-phenylamino)-benzooxazol-7-yl]-benzamide]",593
7,"COc1cc(Nc2nc3cccc(-c4cccc([N+](=O)[O-])c4)c3o2)cc(OC)c1OC [Example 48, [7-(3-Nitro-phenyl)-benzooxazol-2-yl]-(3,4,5-trimethoxy-phenyl)-amine]",700
8,"COc1cc(Nc2nc3cccc(-c4cccc(S(C)(=O)=O)c4)c3o2)cc(OC)c1OC [Example 49, [7-(3-Methanesulfonyl-phenyl)-benzooxazol-2-yl]-(3,4,5-trimethoxy-phenyl)-amine]",520
9,"CNS(=O)(=O)c1cccc(-c2cccc3nc(Nc4cc(OC)c(OC)c(OC)c4)oc23)c1 [Example 50, N-Methyl-3-[2-(3,4,5-trimethoxy-phenylamino)-benzooxazol-7-yl]-benzene-sulfonamide]",610

# Now those with a lower IC50, led by results:
row,IC50 [nM],Compound
1,178,"COc1cc(Nc2nc3cccc(-c4cccc(O)c4)c3o2)cc(OC)c1OC [Example 6, [7-(3-Hydroxy-phenyl)-benzooxazol-2-yl]-(3,4,5-trimethoxy-phenyl)-amine]"
2,52,"COc1cc(Nc2nc3cccc(-c4ccc(NS(C)(=O)=O)cc4)c3o2)cc(OC)c1OC [Example 26, N-{4-[2-(3,4,5-Trimethoxy-phenylamino)-benzooxazol-7-yl]-phenyl}-methanesulfonamide]"
3,200,"COc1cc(Nc2nc3cccc(-c4ccc(NC(C)=O)cc4)c3o2)cc(OC)c1OC [Example 27, N-{4-[2-(3,4,5-Trimethoxy-phenylamino)-benzooxazol-7-yl]-phenyl}-acetamide]"
4,120,"COc1cc(Nc2nc3cccc(-c4ccc5[nH]cnc5c4)c3o2)cc(OC)c1OC [Example 35, [7-(1H-Benzoimidazol-5-yl)-benzooxazol-2-yl]-(3,4,5-trimethoxy-phenyl)-amine]"
5,120,"COc1cc(Nc2nc3ccnc(-c4ccc(N)cc4)c3o2)cc(OC)c1OC [Example 36, [4-(4-Amino-phenyl)-oxazolo[5,4-c]pyridin-2-yl]-(3,4,5-trimethoxy-phenyl)-amine]"
6,350,"COc1cc(Nc2nc3cccc(-c4ccccn4)c3o2)cc(OC)c1OC [Example 46, (7-Pyridin-2-yl-benzooxazol-2-yl)-(3,4,5-trimethoxy-phenyl)-amine]"
7,450,"COc1ccc(-c2cccc3nc(Nc4cc(OC)c(OC)c(OC)c4)oc23)cc1[N+](=O)[O-] [Example 51, [7-(4-Methoxy-3-nitro-phenyl)-benzooxazol-2-yl]-(3,4,5-trimethoxy-phenyl)-amine]"
8,150,"COc1cc(Nc2nc3cccc(-c4ccc(Cl)c(N)c4)c3o2)cc(OC)c1OC [Example 52, [7-(3-Amino-4-chloro-phenyl)-benzooxazol-2-yl]-(3,4,5-trimethoxy-phenyl)-amine]"
